Measurements taken from patent publication US10308686B2, “Gamma-AApeptides with potent and broad-spectrum antimicrobial activity” (priority 2012, dated 2019).
In brackets after ≈: the same amount, converted by molar mass. Read-outs that look alike come from different tables or passages of the source.

Key:
[1] = tested on: human red blood cells (hRBC's); assay: Hemolysis assay; type: cell-based
Description: Freshly drawn human red blood cells (hRBC's) with additive K2 EDTA (spray-dried) were washed with PBS buffer several times and centrifuged at 1000 g for 10 min until a clear supernatant was observed. The hRBC's were resuspended in 1×PBS to get a 5% v/v suspension. Two-fold serial dilutions of γ-AApeptides dissolved in 1×PBS from 250 μg/ml through 1.6 μg/ml were added to a sterile 96-well plate to make up a total volume of 50 μL in each well. Then 50 μL of 5% v/v hRBC solution was added to make up a total volume of 100 μL in each well. The 0% hemolysis point and 100% hemolysis point were determined in 1×PBS and 0.2% Triton-X-100, respectively (Patch et al., 2003). The plate was then incubated at 37° C. for 1 h and centrifuged at 3500 rpm for 10 min. The supernatant (30 μL) was diluted with 100 μL of 1×PBS and absorption was detected by measuring the optical density at 360 nm by Biotek Synergy HT microtiter plate reader. % hemolysis was determined by the following equation: % hemolysis=(Abssample−AbsPBS)/(AbsTriton−AbsPBS)×100 H50 is the concentration of γ-AApeptide amphiphiles at which 50% hemolysis was observed. The highest concentration tested in the hemolytic assay was 500 μg/ml. 7. Fluorescence Microscopy
The sequences shown in FIG. 12 were also evaluated via hemolytic assays. Freshly drawn human red blood cells (hRBC's) with additive K2 EDTA (spray-dried) were washed with PBS buffer several times and centrifuged at 1000 g for 10 min until a clear supernatant was observed. The hRBC's were resuspended in 1×PBS to get a 5% v/v suspension. Two-fold serial dilutions of lipidated γ-AApeptides dissolved in 1×PBS from 1 mg/ml through 6.3 μg/ml were added to sterile 96-well plates to make up a total volume of 50 μL in each well. Then 50 μL of 5% v/v hRBC solution was added to make up a total volume of 100 μL in each well. The 0% hemolysis point and 100% hemolysis point were determined in 1×PBS and 0.2% Triton-X-100, respectively (Patch et al., 2003). The plate was then incubated at 37° C. for 1 h and centrifuged at 3500 rpm for 10 min. The supernatant (30 μL) was diluted with 100 μL of 1×PBS and absorption was detected by measuring the optical density at 360 nm with a Biotek Synergy HT microtiter plate reader. % hemolysis was determined by the following equation: % hemolysis=(Abs sample−Abs PBS)/(Abs Triton−Abs PBS)×100

[2] = tested on: multi-drug resistant S. epidermidis (RP62A)
[3] = tested on: methicillin-resistant S. aureus (ATCC 33592)
[4] = tested on: vancomycin-resistant E. faecalis (ATCC 700802)
[5] = tested on: multi-drug resistant P. aeruginosa ATCC 27853
[6] = tested on: K. pneumoniae (ATCC 13383)

SMILES	Hemolysis H10 [1]	Hemolysis H50 [1]	MIC, Fungus C. albicans (C. albicans (ATCC 10231); ATCC 10231)	MIC, S. epidermidis (MRSE) ([2]; Table 5)	MIC, S. aureus (MRSA) ([3]; Table 5)	MIC, E. faecalis (VREF) ([4]; Table 5)	MIC, B. subtilis (B. subtilis (BR151))	MIC, P. aeruginosa ([5]; ATCC 27853)	MIC, K. pneumoniae [6]	further results
CCCCCCCC/C=C\CCCCCCCC(=O)N[C@@H](CCCCN)C(=O)N[C@@H](CCCCN)CN(CC(N)=O)C(=O)CCCN [Sequence 11]	–	–	–	–	–	–	–	–	–	Hemolysis HC10 ([1]; red cells of human): 80 µg/mL; Hemolysis HC50 ([1]; red cells of human): > 500 µg/mL; MIC, Fungi, C. albicans (C. albicans (ATCC 10231); ATCC 10231): 5 µg/mL (≈ 7.51 µM); MIC, Gram positive S. epidermidis ([2]; Table 7): 2 µg/mL (≈ 3 µM); MIC, Gram positive S. aureus ([3]; Table 7): 5 µg/mL (≈ 7.51 µM); MIC, Gram positive E. faecalis ([4]; Table 7): 2.5 µg/mL (≈ 3.75 µM); MIC, Gram positive B. subtilis (B. subtilis (BR151)): 2 µg/mL (≈ 3 µM); MIC, Gram negative P. aeruginosa ([5]; ATCC 27853): 15 µg/mL (≈ 22.5 µM); MIC, Gram negative E. coli (E. coli (JM109)): 10 µg/mL (≈ 15 µM); MIC, Gram negative K. pneumoniae [6]: 40 µg/mL (≈ 60.1 µM)
NCCCC[C@H]1CN(C(=O)CCc2ccccc2)CC(=O)N[C@@H](CCCCN)CN(C(=O)CCc2ccccc2)CC(=O)N[C@@H](CCCCN)CN(C(=O)CCc2ccccc2)CC(=O)N[C@@H](CCCCN)CN(C(=O)CCc2ccccc2)CC(=O)N[C@@H](CCCCN)CN(C(=O)CCc2ccccc2)CC(=O)N[C@@H](Cc2ccccc2)CN(CC(N)=O)C(=O)CCC(=O)N1 [HW-B-4]	> 500 µg/mL	> 500 µg/mL	> 50 µg/mL	10 µg/mL (≈ 5.54 µM)	> 50 µg/mL	20 µg/mL (≈ 11.1 µM)	10 µg/mL (≈ 5.54 µM)	20 µg/mL (≈ 11.1 µM)	> 50 µg/mL	–
CC(C)CCC(=O)N1CC(=O)N[C@@H](CCCCN)CN(C(=O)CCc2ccccc2)CC(=O)N[C@@H](CCCCN)CN(C(=O)CCc2ccccc2)CC(=O)N[C@@H](Cc2ccccc2)CN(CC(N)=O)C(=O)CCC(=O)N[C@@H](CCCCN)CN(C(=O)CCc2ccccc2)CC(=O)N[C@@H](CCCCN)CN(C(=O)CCc2ccccc2)CC(=O)N[C@@H](CCCCN)CN(C(=O)CCc2ccccc2)CC(=O)N[C@@H](Cc2ccccc2)C1 [γAA4]	–	–	–	–	–	–	2 µg/mL (≈ 0.955 µM)	–	–	Hemolysis (H50) ([1]; Table 3): >500 µg/mL; MIC, Fungi C. albicans (C. albicans (ATCC 10231); ATCC 10231): 3 to 6 µg/mL; MIC, S. epidermidis (multi-drug resistant) ([2]; multi-drug resistant (RP62A)): 2 µg/mL (≈ 0.955 µM); MIC, S. aureus (methicillin-resistant) ([3]; ATCC 33592): 3.1 to 6.3 µg/mL; MIC, E. faecalis (vancomycin-resistant) ([4]; ATCC 700802): 12.5 to 25 µg/mL; MIC, E. coli (E. coli (JM109)): 3.1 to 6.3 µg/mL; MIC, K. pneumoniae (causing pneumonia) [6]: >100 µg/mL
NCCCC[C@H]1CN(C(=O)CCc2ccccc2)CC(=O)N[C@@H](CCCCN)CN(C(=O)CCc2ccccc2)CC(=O)N[C@@H](CCCCN)CN(C(=O)CCc2ccccc2)CC(=O)N[C@@H](CCCCN)CN(C(=O)CCc2ccccc2)CC(=O)N[C@@H](CCCCN)CN(C(=O)CCc2ccccc2)CC(=O)N[C@@H](CCCCN)CN(C(=O)CCc2ccccc2)CC(=O)N[C@@H](Cc2ccccc2)CN(CC(N)=O)C(=O)CCC(=O)N1 [HW-B-5]	> 500 µg/mL	> 500 µg/mL	> 50 µg/mL	8 µg/mL (≈ 3.79 µM)	25-50	20 µg/mL (≈ 9.48 µM)	5 µg/mL (≈ 2.37 µM)	18 µg/mL (≈ 8.53 µM)	> 50 µg/mL	–
CC(C)CCC(=O)N1CC(=O)N[C@@H](Cc2ccccc2)CN(C(=O)CCC(C)C)CC(=O)N[C@@H](CCCCN)CN(C(=O)CCc2ccccc2)CC(=O)N[C@@H](CCCCN)CN(C(=O)CCc2ccccc2)CC(=O)N[C@@H](CCCCN)CN(C(=O)CCc2ccccc2)CC(=O)N[C@@H](CCCCN)CN(C(=O)CCc2ccccc2)CC(=O)N[C@@H](Cc2ccccc2)CN(CC(N)=O)C(=O)CCC(=O)N[C@@H](Cc2ccccc2)C1 [HW-B-13]	40 µg/mL	100 µg/mL	2 µg/mL (≈ 0.962 µM)	2 µg/mL (≈ 0.962 µM)	1	5 µg/mL (≈ 2.4 µM)	–	–	8 µg/mL (≈ 3.85 µM)	–
CC(C)CCC(=O)N1CC(=O)N[C@@H](CCCCN)CN(C(=O)CCc2ccccc2)CC(=O)N[C@@H](CCCCN)CN(C(=O)CCc2ccccc2)CC(=O)N[C@@H](Cc2ccccc2)CN(CC(N)=O)C(=O)CCC(=O)N[C@@H](CCCCN)CN(C(=O)CCc2ccccc2)CC(=O)N[C@@H](CCCCN)CN(C(=O)CCc2ccccc2)CC(=O)N[C@@H](CCCCN)CN(C(=O)CCc2ccccc2)CC(=O)N[C@@H](Cc2ccccc2)C1 [HW-B-11]	–	–	–	–	–	–	–	–	20 µg/mL (≈ 9.55 µM)	Hemolysis H10 ([1]; Table 5, first value of H10/H50): 200 µg/mL; Hemolysis H50 ([1]; Table 5, second value of H10/H50): > 500 µg/mL; MIC, Fungus C. albicans (C. albicans (ATCC 10231); Table 5): 5 µg/mL (≈ 2.39 µM); MIC, S. epidermidis (MRSE) ([2]; multi-drug resistant (RP62A)): 2 µg/mL (≈ 0.955 µM); MIC, S. aureus (MRSA) ([3]; ATCC 33592): 5 µg/mL (≈ 2.39 µM); MIC, E. faecalis (VREF) ([4]; ATCC 700802): 15 µg/mL (≈ 7.16 µM); MIC, P. aeruginosa ([5]; Table 5): 10 µg/mL (≈ 4.77 µM)
